For 19 molecules, GI50 and TGI results are on record in PubChem BioAssay (NCI).

Structures are written as SMILES.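 Grown in 96-well plates, cells were treated for 48 hours with each compound at five concentrations. Insufficient inhibition: endpoint recorded as highest concentration tested. The concentration for 50% growth inhibition is given as GI50. TGI denotes the concentration required for complete inhibition of growth.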 Where only a bound is given, the exact number is not on record here.

Common to all, as to assay: growth of human tumour cells (NCI), 48 h
Test [1] deals with U251 CNS.
For test [2], the system named is A498 renal.
The subject of test [3] is CAKI-1 renal.
In test [4] the test system is A549 NSCLC.
Test [5] deals with SNB-19 CNS.
The subject of test [6] is COLO 205 colon.
Test [7] has as its system SK-OV-3 ovarian.
Test [8] concerns SN12C renal.
Test [9] relates to MALME-3M melanoma.
The subject of test [10] is UACC-257 melanoma.

Regarding `CC1(O)COCCCCOc2c(CN)cccc2NC(=O)c2nc(cnc2N)-c2ccc(cc2)S(=O)(=O)C(C)(C)C1` (stereo unspecified), the GI50 in test [1] was 715 nM; in test [2] it was 16.3 nM; in [3], 1220 nM; in test [4], 290 nM; in test [5] it was 1330 nM; in [6] it was 546 nM. The GI50 in test [7] is 1370 nM; in [8], 1270 nM; in test [9], 1770 nM; in test [10], 1760 nM. Besides, the TGI in test [1] turned out to be 2.22 µM; in [2] it was 1.43 µM; in [3], 2.53 µM; in test [4], 2.34 µM; in [5], 2.74 µM; in test [6] it was 2.17 µM. Moreover, the TGI amounted to 2.8 µM in test [7], 2.66 µM in test [8], 3.43 µM in [9] and 3.35 µM in test [10].
Take `Cc1ccc(N=NC(C2=NC(=O)CS2)c2nc3ccccc3[nH]2)cc1` (stereo unspecified): the TGI in test [1], in [2], in [3], in [4], in [5] and in test [6] was greater than 100 µM each time. Moreover, the TGI in test [7], in test [8], in test [9] and in test [10] was greater than 100 µM in each case.
`CC1(C=O)CCC23COC4(CCC5C6(C)CCC(OC7OCC(OC8OC(CO)C(O)C(OC9OC(CO)C(O)C(O)C9O)C8OC8OCC(O)C(O)C8O)C(O)C7OC7OC(CO)C(O)C(O)C7O)C(C)(C)C6CCC5(C)C4(C)CC2O)C3C1` (stereo unspecified): the TGI in test [1] was greater than 100 µM; in [2], 1.94 µM; in test [3], 2.32 µM; in test [4], 3.53 µM; in test [5], 1.09 µM; in test [6], 2.56 µM. Also, in [7], the TGI was determined as 2.57 µM.
With `CO/N=C(\C)c1cccc(Nc2nc3ccccc3c3occc23)c1`, the TGI in test [1] amounted to 33.2 µM; in test [2] it was 17.3 µM; in [3], 25.4 µM; in test [4] it was 30 µM; in test [5], 31 µM; in [6], 24.5 µM. Moreover, the TGI in test [7] was determined as 27.1 µM; in test [8], 26.9 µM; in test [9], 29.7 µM; in test [10], 3.69 µM.
Turning to `CCc1ccc2c(c1)C(=O)c1c-2n(CCCN)c(=O)c2cc([N+](=O)[O-])ccc12`, the GI50 in test [1] was 1070 nM; in test [3] it was 1550 nM; in test [5], 1170 nM; in test [6] it was 1210 nM; in test [8], 1480 nM; in test [9], 1420 nM. Also, in [10], the GI50 was 1880 nM. The TGI is 2.29 µM in test [1]; 3.11 µM in test [3]; 2.42 µM in test [5]; 2.51 µM in test [6]; 2.95 µM in test [8]; 2.8 µM in [9]. In addition, in test [10], the TGI came out at 3.42 µM.
For the molecule `CCOP(=O)(OCC)C(Nc1cccc(F)c1)c1ccc(N(C)C)cc1` (stereo unspecified), the TGI in [1], in test [2], in test [3], in test [4], in test [5] and in test [6] was greater than 100 µM in each case. Besides, the TGI in [7], in [8], in test [9] and in test [10] was greater than 100 µM throughout.
In the case of `CC1CC(Br)C(=O)O1` (stereo unspecified), the TGI in test [1], in [2], in test [3], in test [4], in test [5] and in test [6] was greater than 100 µM in each case. In addition, the TGI in test [7], in [8], in test [9] and in [10] was greater than 100 µM throughout.
For the molecule `COC(=O)NC1C(C)OC(OC2C/C=C(/C)C3C=CC4C(OC5CC(OC6CC(OC7CC(O)C(O)C(C)O7)C(OC7CC(O)C(OC)C(C)O7)C(C)O6)C(O)C(C)O5)C(C)CC(C)C4C3(C)/C(O)=C3\C(=O)OC4(CC(C)C(CO)=CC4/C=C\2C)C3=O)CC1(C)[N+](=O)[O-]` (stereo unspecified), the TGI was 44.9 µM in test [1]; 57.9 µM in [2]; 41.1 µM in test [3]; greater than 100 µM in test [4]; greater than 100 µM in test [5]; 36.2 µM in test [6]. For the same molecule, the TGI was greater than 100 µM in test [8] and 57.8 µM in test [10].
Take `C[N+](C)(C)CCN[N+]1(C)CCCc2ccccc21` (stereo unspecified): the TGI in [1] is greater than 100 µM; in test [2], 35.1 µM; in [3], greater than 100 µM; in [4], greater than 100 µM; in test [5], greater than 100 µM; in [6], greater than 100 µM. In addition, the TGI is greater than 100 µM in test [7], greater than 100 µM in test [8], 50.3 µM in test [9] and greater than 100 µM in test [10].
`COc1cc([N+](=O)[O-])ccc1N1C(=O)C2c3[nH]c4ccccc4c3C3CCC(C(C)(C)C)CC3C2C1=O` (stereo unspecified): the TGI in test [1] was 25.4 µM; in test [2], greater than 100 µM; in [3], 24.9 µM; in test [4], greater than 100 µM; in test [6], greater than 100 µM; in test [7], greater than 100 µM. For the same molecule, the TGI in [8], in [9] and in test [10] was greater than 100 µM in each case.
As to `CS(=O)(=O)OCCN(CCOS(C)(=O)=O)c1ccc(/C=N/Nc2ncnc3nc[nH]c23)cc1`, the TGI in test [1] was 53.5 µM; in test [2] it was 60.6 µM; in test [3], 32.5 µM; in test [4], 96.6 µM; in test [5] it was greater than 100 µM; in test [6], 31.7 µM. For the same molecule, the TGI in test [7] was greater than 100 µM; in test [8] it was greater than 100 µM; in [9] it was 55.2 µM; in [10] it was 48.9 µM.
In the case of `CCCCCCCN(CCCCCCC)CC(O)c1cc2ccccc2c2cc(Br)ccc12` (stereo unspecified), the TGI in [1] was 45.6 µM; in test [2] it was greater than 100 µM; in [3], greater than 100 µM; in test [5] it was greater than 100 µM; in test [6], greater than 100 µM; in test [7] it was greater than 100 µM. The TGI in test [8] is 46.7 µM; in test [9], 40.7 µM; in test [10] it was greater than 100 µM.
`CCO[C@]12CCC[C@H]1[C@@H]1C(=O)c3ccccc3C(=O)C1=C(C)O2`: the TGI in test [1], in test [2], in test [3], in [4], in test [5] and in test [6] was greater than 100 µM throughout. Moreover, the TGI in [7], in test [8], in [9] and in [10] was greater than 100 µM each time.
Turning to `Oc1ccc(-c2nc3cc(F)ccc3s2)cc1`, the TGI in test [1] was 42.6 µM; in [3], 43.9 µM; in test [4], 40.6 µM; in [5] it was greater than 100 µM; in test [6], 33.9 µM; in [7], 50.7 µM. In addition, the TGI in test [8] is 53.3 µM; in [9], 43.3 µM; in [10], 69.6 µM.
Consider `CCOC(=O)Nc1cc2c(c(N)n1)N=C(c1ccc3ccccc3c1)CN2`, for which the TGI was greater than 100 µM in [1]; 35.2 µM in [2]; 36.9 µM in test [3]; 23.8 µM in test [4]; 18.9 µM in test [7]; 5.29 µM in test [8]. In addition, the TGI in [9] was 19.3 µM; in test [10], greater than 100 µM.
For `CCSc1nc(-c2cccs2)nc2ccc(I)cc12`, the TGI in test [1], in test [3], in test [4], in [5], in test [6] and in test [8] was greater than 100 µM in each case. Besides, the TGI in [10] is greater than 100 µM.
For `N=C(N)SCc1cccc([N+](=O)[O-])c1`, the TGI is 97.3 µM in [1]; greater than 74 µM in test [2]; 74.1 µM in test [3]; greater than 100 µM in test [4]; 47.9 µM in test [6]; greater than 81.4 µM in test [7]. Further, the values for the TGI in [8], in [9] and in test [10] were greater than 96.1 µM, greater than 76.6 µM and greater than 75 µM, respectively.
Regarding `O=C1OC2(OC2c2ccc(Cl)cc2)c2ccccc21` (stereo unspecified), the TGI in [3], in test [4], in test [5], in test [6], in [7] and in [8] was greater than 100 µM throughout. This molecule had a TGI in test [9] greater than 100 µM.
Take `CN(C)c1ccc(/C=c2/c3ccccc3n3c2cc(NC(=O)NCCC[N+](C)(C)C)[n+]3C)cc1`: the TGI in test [1], in [2], in [3], in test [4], in test [5] and in test [6] was greater than 100 µM in each case. In addition, the TGI in test [7], in test [9] and in test [10] was greater than 100 µM in each case.
